Legend:
[1] = target: T1, histidine tagged recombinant Human Lymphocyte-Specific Protein Tyrosine Kinase (Lck) (Homo sapiens, UniProt P06239); assay: Lck kinase inhibition assay (fluorescence polarization, KinEASE FP Fluorescein Green); assay type: biochemical; conditions: 10 μM ATP, 250 μM substrate, 60 minutes, room temperature; Ki from IC50 by Cheng-Prusoff
T1 construct: histidine tag
Experimental: (§1) Kinase Binding Btk and Lck Kinase Inhibition Assay
(§2) Fluorescence polarization-based kinase assays were performed in 384 well-plate format using histidine tagged recombinant human full-length Bruton Agammaglobulinemia Tyrosine Kinase (Btk) or histidine tagged recombinant Human Lymphocyte-Specific Protein Tyrosine Kinase (Lck) and a modified protocol of the KinEASE™ FP Fluorescein Green Assay supplied from Millipore. Kinase reaction were performed at room temperature for 60 minutes in presence of 250 μM substrate, 10 μM ATP and variable test article concentrations. The reaction was stopped with EDTA/kinease detection reagents and the polarization measured on a Tecan 500 instrument. From the dose-response curve obtained, the IC50 was calculated using Graph Pad Prisms® using a non-linear fit curve. The Km for ATP on each enzyme was experimentally determined and the Ki values calculated using the Cheng-Prusoff equation (see: Cheng Y, Prusoff W H. (1973) Relationship between the inhibition constant (K1) and the concentration of inhibitor which causes 50 percent inhibition (I50) of an enzymatic reaction”. Biochem Pharmacol 22 (23): 3099-108).
(§3) ki values are reported in Tables 2 and 3: • a—Less than 100 nM; b—less than 1000 nM; c—more than 1000 nM

[2] = target: T2, histidine tagged recombinant human full-length Bruton Agammaglobulinemia Tyrosine Kinase (Btk) (Homo sapiens, UniProt Q06187); assay: Btk kinase inhibition assay (fluorescence polarization, KinEASE FP Fluorescein Green); assay type: biochemical; conditions: 10 μM ATP, 250 μM substrate, 60 minutes, room temperature; Ki from IC50 by Cheng-Prusoff; read-out: ki50 (nM), Inhibition of Btk
T2 construct: recombinant human full-length Bruton Agammaglobulinemia Tyrosine Kinase (Btk); histidine tag
Experimental: as §1, §2, §3

mouse splenocytes = assay: Splenic cell proliferation assay (anti-IgM stimulated B cell proliferation, Cell Titer-Glo); assay type: cell-based; conditions: Splenocyte; CD1 mouse splenocytes, 1 h pre-treatment, 2.5 ug/ml anti-IgM F(ab')2 for 72 h; read-out: EC50 (nM), Inhibition of splenic cell proliferation
Experimental: Splenic Cell Proliferation Assay
Splenocytes were obtained from 6 week old male CD1 mice (Charles River Laboratories Inc.). Mouse spleens were manually disrupted in PBS and filtered using a 70 μm cell strainer followed by ammonium chloride red blood cell lysis. Cells were washed, resuspended in Splenocyte Medium (HyClone RPMI supplemented with 10% heat-inactivated FBS, 0.5× non-essential amino acids, 10 mM HEPES, 50 uM beta mercaptoethanol) and incubated at 37° C., 5% CO2 for 2 h to remove adherent cells. Suspension cells were seeded in 96 well plates at 50,000 cells per well and incubated at 37° C., 5% CO2 for 1 h. Splenocytes were pre-treated in triplicate with 10,000 nM curves of Formula 1 compounds for 1 h, followed by stimulation of B cell proliferation with 2.5 ug/ml anti-IgM F(ab′)2 (Jackson ImmunoResearch) for 72 h. Cell proliferation was measured by Cell Titer-Glo Luminescent Assay (Promega). EC50 values (50% proliferation in the presence of compound as compared to vehicle treated controls) were calculated from dose response compound curves using GraphPad Prism Software.
EC50 values are reported in Table 4: • a—Less than 100 nM; b—less than 1000 nM; c—more than 1000 nM

T2 sequence (Q06187 whole entry): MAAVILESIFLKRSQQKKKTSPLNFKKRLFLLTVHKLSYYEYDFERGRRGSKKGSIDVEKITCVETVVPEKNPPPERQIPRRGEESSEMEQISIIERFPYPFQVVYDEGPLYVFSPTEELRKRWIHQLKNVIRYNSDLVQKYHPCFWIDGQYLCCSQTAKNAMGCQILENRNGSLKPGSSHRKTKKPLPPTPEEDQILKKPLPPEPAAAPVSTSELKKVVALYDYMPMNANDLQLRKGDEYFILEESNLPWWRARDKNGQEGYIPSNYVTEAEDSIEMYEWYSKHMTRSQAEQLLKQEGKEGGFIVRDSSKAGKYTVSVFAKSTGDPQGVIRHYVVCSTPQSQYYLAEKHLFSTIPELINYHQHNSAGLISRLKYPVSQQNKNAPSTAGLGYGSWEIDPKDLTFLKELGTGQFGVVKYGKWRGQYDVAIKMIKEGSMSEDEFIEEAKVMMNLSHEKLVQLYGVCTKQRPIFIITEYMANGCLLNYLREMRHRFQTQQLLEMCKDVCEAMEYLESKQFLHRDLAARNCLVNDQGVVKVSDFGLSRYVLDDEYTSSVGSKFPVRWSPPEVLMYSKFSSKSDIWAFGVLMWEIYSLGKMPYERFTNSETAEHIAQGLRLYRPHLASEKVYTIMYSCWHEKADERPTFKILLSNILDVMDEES
T1 sequence (P06239 whole entry): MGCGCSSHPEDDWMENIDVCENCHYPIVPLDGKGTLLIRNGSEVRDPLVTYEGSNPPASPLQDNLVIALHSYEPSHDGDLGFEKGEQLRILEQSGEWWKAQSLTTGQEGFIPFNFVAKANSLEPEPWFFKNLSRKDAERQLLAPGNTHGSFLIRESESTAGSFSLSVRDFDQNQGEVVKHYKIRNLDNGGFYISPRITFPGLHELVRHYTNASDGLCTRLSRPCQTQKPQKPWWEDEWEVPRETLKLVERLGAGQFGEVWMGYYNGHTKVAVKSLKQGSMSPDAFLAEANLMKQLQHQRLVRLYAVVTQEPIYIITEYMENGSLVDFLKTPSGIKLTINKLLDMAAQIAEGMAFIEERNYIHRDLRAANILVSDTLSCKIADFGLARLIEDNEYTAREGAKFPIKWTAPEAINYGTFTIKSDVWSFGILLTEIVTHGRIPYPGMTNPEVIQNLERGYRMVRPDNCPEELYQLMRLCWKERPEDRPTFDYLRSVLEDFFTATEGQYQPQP

Nc1ncnc2c3c(n(-c4ccc(Oc5ccccc5)cc4)c12)CCC3 [Compound 1]
Ki [1]: < 100 nM
Ki [2]: < 1000 nM
EC50 (mouse splenocytes): > 1000 nM

Nc1ncnc2c3c(n(-c4ccc(Oc5ccccc5)cc4)c12)CCNC3 [Compound 8]
Ki [1]: < 1000 nM
Ki [2]: > 1000 nM

Nc1ncnc2c3c(n(-c4ccc(Oc5ccccc5)cc4)c12)CN(S(=O)(=O)c1ccccc1)C3 [Compound 9]
Ki [1]: < 1000 nM
Ki [2]: > 1000 nM

CCN1CCc2c(c3ncnc(N)c3n2-c2ccc(Oc3ccccc3)cc2)C1 [Compound 15]
Ki [1]: < 100 nM
Ki [2]: > 1000 nM

Nc1ncnc2c3c(n(-c4ccc(Oc5ccccc5)cc4)c12)CN(C(=O)c1ccccc1)C3 [Compound 18]
Ki [1]: < 1000 nM
Ki [2]: > 1000 nM

Nc1ncnc2c3c(n(-c4ccc(Cc5ccccc5)cc4)c12)CCC3 [Compound 22]
Ki [1]: < 100 nM
Ki [2]: > 1000 nM

CC1OCc2c1c1ncnc(N)c1n2-c1ccc(Oc2cccc(OCc3cccc(Cl)c3)c2)cc1 (stereo not shown) [Compound 97]
Ki [2]: < 100 nM
EC50 (mouse splenocytes): 100 to 1000 nM

CC1OCc2c1c1ncnc(N)c1n2-c1ccc(Oc2cccc(OCc3cccc(F)c3)c2)cc1 (stereo not shown) [Compound 99]
Ki [2]: < 100 nM
EC50 (mouse splenocytes): 100 to 1000 nM

CC1OCc2c1c1ncnc(N)c1n2-c1ccc(Oc2cccc(OCc3ccccc3C(F)(F)F)c2)cc1 (stereo not shown) [Compound 100]
Ki [2]: < 100 nM
EC50 (mouse splenocytes): < 100 nM

Cc1nc(COc2cccc(Oc3ccc(-n4c5c(c6ncnc(N)c64)C(C)OC5)cc3)c2)cs1 (stereo not shown) [Compound 102]
Ki [2]: < 100 nM
EC50 (mouse splenocytes): 100 to 1000 nM

COc1cccc(COc2cccc(Oc3ccc(-n4c5c(c6ncnc(N)c64)C(C)OC5)cc3)c2)c1 (stereo not shown) [Compound 103]
Ki [2]: < 100 nM
EC50 (mouse splenocytes): 100 to 1000 nM

COc1ccc(COc2cccc(Oc3ccc(-n4c5c(c6ncnc(N)c64)C(C)OC5)cc3)c2)cc1 (stereo not shown) [Compound 104]
Ki [2]: < 100 nM
EC50 (mouse splenocytes): 100 to 1000 nM

CC1OCc2c1c1ncnc(N)c1n2-c1ccc(Oc2cccc(OCc3cccc(C(F)(F)F)c3)c2)cc1 (stereo not shown) [Compound 105]
Ki [2]: < 100 nM
EC50 (mouse splenocytes): 100 to 1000 nM

CC(=O)Nc1cccc(COc2cccc(Oc3ccc(-n4c5c(c6ncnc(N)c64)C(C)OC5)cc3)c2)c1 (stereo not shown) [Compound 106]
Ki [2]: < 100 nM
EC50 (mouse splenocytes): 100 to 1000 nM

CC1OCc2c1c1ncnc(N)c1n2-c1ccc(Oc2cccc(OCc3ccccc3Cl)c2)cc1 (stereo not shown) [Compound 107]
Ki [2]: < 100 nM
EC50 (mouse splenocytes): < 100 nM

COc1ccccc1COc1cccc(Oc2ccc(-n3c4c(c5ncnc(N)c53)C(C)OC4)cc2)c1 (stereo not shown) [Compound 108]
Ki [2]: < 100 nM
EC50 (mouse splenocytes): 100 to 1000 nM

COc1ccc(C(=O)Nc2cccc(Oc3ccc(-n4c5c(c6ncnc(N)c64)C(C)OC5)cc3)c2)cc1 (stereo not shown) [Compound 110]
Ki [2]: < 1000 nM
EC50 (mouse splenocytes): > 1000 nM

CC(C)C(=O)Nc1cccc(Oc2ccc(-n3c4c(c5ncnc(N)c53)C(C)OC4)cc2)c1 (stereo not shown) [Compound 111]
Ki [2]: < 1000 nM
EC50 (mouse splenocytes): > 1000 nM

CC1OCc2c1c1ncnc(N)c1n2-c1ccc(Oc2cccc(NC(=O)c3ccc(F)cc3)c2)cc1 (stereo not shown) [Compound 112]
Ki [2]: < 100 nM
EC50 (mouse splenocytes): 100 to 1000 nM

CC1OCc2c1c1ncnc(N)c1n2-c1ccc(Oc2cccc(OCc3cccc([N+](=O)[O-])c3)c2)cc1 (stereo not shown) [Compound 113]
Ki [2]: < 100 nM
EC50 (mouse splenocytes): 100 to 1000 nM

CC(C)CC(=O)Nc1cccc(Oc2ccc(-n3c4c(c5ncnc(N)c53)C(C)OC4)cc2)c1 (stereo not shown) [Compound 114]
Ki [2]: < 100 nM
EC50 (mouse splenocytes): 100 to 1000 nM

CC1OCc2c1c1ncnc(N)c1n2-c1ccc(Oc2cccc(CCOc3ccccc3)c2)cc1 (stereo not shown) [Compound 115]
Ki [2]: < 100 nM
EC50 (mouse splenocytes): 100 to 1000 nM

CC1OCc2c1c1ncnc(N)c1n2-c1ccc(Oc2cccc(OCc3cccc(N)c3)c2)cc1 (stereo not shown) [Compound 116]
Ki [2]: < 100 nM
EC50 (mouse splenocytes): 100 to 1000 nM

Cc1nc(-c2cccc(Oc3ccc(-n4c5c(c6ncnc(N)c64)CCC5)cc3)c2)cs1 [Compound 117]
Ki [2]: < 100 nM
EC50 (mouse splenocytes): 100 to 1000 nM

COc1cccc(C(=O)Nc2cccc(Oc3ccc(-n4c5c(c6ncnc(N)c64)C(C)OC5)cc3)c2)c1 (stereo not shown) [Compound 118]
Ki [2]: < 100 nM
EC50 (mouse splenocytes): 100 to 1000 nM

CC1OCc2c1c1ncnc(N)c1n2-c1ccc(Oc2cccc(NC(=O)c3cccc(Cl)c3)c2)cc1 (stereo not shown) [Compound 119]
Ki [2]: < 100 nM
EC50 (mouse splenocytes): 100 to 1000 nM

CC1OCc2c1c1ncnc(N)c1n2-c1ccc(Oc2cccc(NC(=O)c3ccc(Cl)cc3)c2)cc1 (stereo not shown) [Compound 120]
Ki [2]: < 100 nM
EC50 (mouse splenocytes): 100 to 1000 nM

CC1OCc2c1c1ncnc(N)c1n2-c1ccc(Oc2cccc(NC(=O)c3cccc(F)c3)c2)cc1 (stereo not shown) [Compound 121]
Ki [2]: < 100 nM
EC50 (mouse splenocytes): 100 to 1000 nM

N#Cc1ccccc1COc1cccc(Oc2ccc(-n3c4c(c5ncnc(N)c53)CCC4)cc2)c1 [Compound 122]
Ki [2]: < 100 nM
EC50 (mouse splenocytes): 100 to 1000 nM

COc1cccc(COc2cccc(Oc3ccc(-n4c5c(c6ncnc(N)c64)CCC5)cc3)c2)c1 [Compound 123]
Ki [2]: < 100 nM
EC50 (mouse splenocytes): 100 to 1000 nM

CC1OCc2c1c1ncnc(N)c1n2-c1ccc(Oc2cccc(OCCC3CCCCC3)c2)cc1 (stereo not shown) [Compound 124]
Ki [2]: < 100 nM
EC50 (mouse splenocytes): 100 to 1000 nM

CC1OCc2c1c1ncnc(N)c1n2-c1ccc(Oc2cccc(NC(=O)c3ccccc3F)c2)cc1 (stereo not shown) [Compound 125]
Ki [2]: < 100 nM
EC50 (mouse splenocytes): 100 to 1000 nM

CCCC(=O)Nc1cccc(Oc2ccc(-n3c4c(c5ncnc(N)c53)C(C)OC4)cc2)c1 (stereo not shown) [Compound 126]
Ki [2]: < 1000 nM
EC50 (mouse splenocytes): 100 to 1000 nM

COc1ccccc1C(=O)Nc1cccc(Oc2ccc(-n3c4c(c5ncnc(N)c53)C(C)OC4)cc2)c1 (stereo not shown) [Compound 127]
Ki [2]: < 100 nM
EC50 (mouse splenocytes): 100 to 1000 nM

Nc1ncnc2c3c(n(-c4ccc(Oc5cccc(OCc6ccc(Cl)cc6)c5)cc4)c12)CCC3 [Compound 128]
Ki [2]: < 100 nM
EC50 (mouse splenocytes): 100 to 1000 nM

COc1ccc(COc2cccc(Oc3ccc(-n4c5c(c6ncnc(N)c64)CCC5)cc3)c2)cc1 [Compound 129]
Ki [2]: < 100 nM
EC50 (mouse splenocytes): 100 to 1000 nM

CC(=O)Nc1cccc(COc2cccc(Oc3ccc(-n4c5c(c6ncnc(N)c64)CCC5)cc3)c2)c1 [Compound 130]
Ki [2]: < 100 nM
EC50 (mouse splenocytes): 100 to 1000 nM

COc1ccc(OCc2cccc(Oc3ccc(-n4c5c(c6ncnc(N)c64)C(C)OC5)cc3)c2)cc1 (stereo not shown) [Compound 131]
Ki [2]: < 100 nM
EC50 (mouse splenocytes): 100 to 1000 nM

COCC(=O)Nc1cccc(COc2cccc(Oc3ccc(-n4c5c(c6ncnc(N)c64)C(C)OC5)cc3)c2)c1 (stereo not shown) [Compound 132]
Ki [2]: < 100 nM
EC50 (mouse splenocytes): 100 to 1000 nM

CC1OCc2c1c1ncnc(N)c1n2-c1ccc(Oc2cccc(OCc3cccc(NC(=O)C4CC4)c3)c2)cc1 (stereo not shown) [Compound 133]
Ki [2]: < 100 nM
EC50 (mouse splenocytes): < 100 nM

CC1OCc2c1c1ncnc(N)c1n2-c1ccc(Oc2cccc(COc3ccccc3C#N)c2)cc1 (stereo not shown) [Compound 134]
Ki [2]: < 100 nM
EC50 (mouse splenocytes): < 100 nM

CC(C)COc1cccc(Oc2ccc(-n3c4c(c5ncnc(N)c53)C(C)OC4)cc2)c1 (stereo not shown) [Compound 135]
Ki [2]: < 100 nM
EC50 (mouse splenocytes): 100 to 1000 nM

CCCCOc1cccc(Oc2ccc(-n3c4c(c5ncnc(N)c53)C(C)OC4)cc2)c1 (stereo not shown) [Compound 136]
Ki [2]: < 100 nM
EC50 (mouse splenocytes): 100 to 1000 nM

COc1cccc(OCc2cccc(Oc3ccc(-n4c5c(c6ncnc(N)c64)C(C)OC5)cc3)c2)c1 (stereo not shown) [Compound 137]
Ki [2]: < 100 nM
EC50 (mouse splenocytes): 100 to 1000 nM

CC1OCc2c1c1ncnc(N)c1n2-c1ccc(Oc2cccc(OCC3CC3)c2)cc1 (stereo not shown) [Compound 138]
Ki [2]: < 100 nM
EC50 (mouse splenocytes): 100 to 1000 nM

CC1OCc2c1c1ncnc(N)c1n2-c1ccc(Oc2cccc(OCc3cccc(OCCN(C)C)c3)c2)cc1 (stereo not shown) [Compound 139]
Ki [2]: < 100 nM
EC50 (mouse splenocytes): 100 to 1000 nM

CC1OCc2c1c1ncnc(N)c1n2-c1ccc(Oc2cccc(OCC3CCCC3)c2)cc1 (stereo not shown) [Compound 140]
Ki [2]: < 1000 nM
EC50 (mouse splenocytes): 100 to 1000 nM

CC(=O)Nc1ccccc1OCc1cccc(Oc2ccc(-n3c4c(c5ncnc(N)c53)C(C)OC4)cc2)c1 (stereo not shown) [Compound 141]
Ki [2]: < 1000 nM
EC50 (mouse splenocytes): 100 to 1000 nM

N#Cc1ccccc1OCc1cccc(Oc2ccc(-n3c4c(c5ncnc(N)c53)COC4)cc2)c1 [Compound 142]
Ki [2]: < 100 nM
EC50 (mouse splenocytes): 100 to 1000 nM

N#Cc1ccccc1COc1cccc(Oc2ccc(-n3c4c(c5ncnc(N)c53)COC4)cc2)c1 [Compound 143]
Ki [2]: < 100 nM
EC50 (mouse splenocytes): 100 to 1000 nM

N#Cc1ccccc1OCc1cccc(Oc2ccc(-n3c4c(c5ncnc(N)c53)CCC4)cc2)c1 [Compound 144]
Ki [2]: < 100 nM
EC50 (mouse splenocytes): 100 to 1000 nM

Reference: patent US9624239B2, “Protein kinase inhibitors” (Pharmascience Inc., priority 2011, dated 2017)
